Data taken from paper PMC11796366 (mBio, 2024).

Target: T1, BumS (WT BumS-Myc-6XHis) (Campylobacter jejuni, UniProt Z9AJU0DEG1)
T1 construct: gene CJJ81176_1484; second to penultimate codon, C-terminal Myc-6XHis tag kept (pBAD/Myc-HisA, pNR251), expressed in E. coli TOP10; cytoplasmic, N-terminal PAS domain (about residues 1-120)
T1 sequence (Z9AJU0DEG1 2-403): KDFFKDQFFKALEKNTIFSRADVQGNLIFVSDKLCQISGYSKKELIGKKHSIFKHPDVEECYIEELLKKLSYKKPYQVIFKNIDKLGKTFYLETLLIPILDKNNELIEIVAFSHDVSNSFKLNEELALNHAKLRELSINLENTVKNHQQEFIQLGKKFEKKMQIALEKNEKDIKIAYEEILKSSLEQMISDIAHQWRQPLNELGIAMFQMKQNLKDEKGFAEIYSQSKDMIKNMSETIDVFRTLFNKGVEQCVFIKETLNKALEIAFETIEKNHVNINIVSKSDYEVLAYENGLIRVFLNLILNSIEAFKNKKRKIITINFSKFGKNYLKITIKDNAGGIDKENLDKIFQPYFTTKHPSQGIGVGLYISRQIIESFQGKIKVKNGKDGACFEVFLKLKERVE
Experiment: CD thermal melt at […] nm
Assay type: binding
Settings: […]; […] HEPES, […] NaSO4, […] glycerol; […]-95 °C

CC(C)C(=O)O [isobutyrate]
Tm,app: isobutyrate and isovalerate had a net destabilizing effect on the thermostability of BumS
